Measurements published in the supplement of paper PMC11451515.

Key:
Conditions in all cases: 48 h
[1] = system: SEM cells; assay: cell viability relative to DMSO control; higher = less cytotoxic
Procedure, shortened: (§1)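 Viability was expressed as a per-plate percentage of DMSO wells, with cell-free wells as background. Leukemia cells (NOMO1 or SEM at 500 cells/well, P12-Ichikawa at 1000 cells/well) were adapted for at least four passages in each medium and seeded in 1536-well plates (5 μl). Library compounds in DMSO were pin-dosed over an 11-point threefold series from 47 μM to 0.79 nM, and CellTiter-Glo One luminescence was read after 48 h at 37°C.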

[2] = system: NOMO1; assay: as above
Procedure, shortened: as §1

[3] = system: P12-Ichikawa; assay: as above
Procedure, shortened: as §1

[4] = system: NOMO1; assay: AUC of viability dose-response curve (% viability x log10 dose units); higher = less sensitive
Procedure, shortened: (§2)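 Seeding of medium-adapted leukemia cells was at 500 or 1000 cells/well in 1536-well plates, followed by 48 h at 37°C with library compounds in DMSO at 11 threefold doses from 47 μM to 0.79 nM. CellTiter-Glo One luminescence was normalised per plate to DMSO and cell-free wells and fitted as a four-parameter log-logistic function of log10 dose. Area under the curve was integrated by trapezoidal rule, with curves exceeding full viability scaled and curves failing quality control removed.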

[5] = system: P12-Ichikawa; assay: as above
Procedure, shortened: as §2

[6] = system: SEM cells; assay: as above
Procedure, shortened: as §2

CCc1ccc(/C=C2/SC(=S)NC2=O)cc1
cell viability [%]
Conditions	[1]	[2]	[3]
HPLM + 10% dialyzed FBS, 0.000781 µM	65.6	70.3	84.2
HPLM + 10% dialyzed FBS, 0.00234 µM	63.5	79.1	87.7
HPLM + 10% dialyzed FBS, 0.00702 µM	87.9	88	79.6
HPLM + 10% dialyzed FBS, 0.0211 µM	76.4	86	88.1
HPLM + 10% dialyzed FBS, 0.0632 µM	66.2	74.5	90.9
HPLM + 10% dialyzed FBS, 0.19 µM	64.8	74.2	80.1
HPLM + 10% dialyzed FBS, 0.569 µM	77.2	79.2	91.5
HPLM + 10% dialyzed FBS, 1.71 µM	64.8	79.7	84
HPLM + 10% dialyzed FBS, 5.12 µM	80.9	94.3	85.3
HPLM + 10% dialyzed FBS, 15.4 µM	27.6	51.3	60
HPLM + 10% dialyzed FBS, 46.1 µM	34.5	92.2	88.1
RPMI 5 mM glucose + 10% FBS, 0.000781 µM	78	75.7	82.4
RPMI 5 mM glucose + 10% FBS, 0.00234 µM	89.9	83.5	84.6
RPMI 5 mM glucose + 10% FBS, 0.00702 µM	94	81.8	76
RPMI 5 mM glucose + 10% FBS, 0.0211 µM	106	81.9	88.9
RPMI 5 mM glucose + 10% FBS, 0.0632 µM	97	87.2	82.8
RPMI 5 mM glucose + 10% FBS, 0.19 µM	77.9	83.8	77.7
RPMI 5 mM glucose + 10% FBS, 0.569 µM	80	88.1	85.1
RPMI 5 mM glucose + 10% FBS, 1.71 µM	87.2	76.3	87.3
RPMI 5 mM glucose + 10% FBS, 5.12 µM	74.6	93.4	84.8
RPMI 5 mM glucose + 10% FBS, 15.4 µM	40.1	59.9	46.1
RPMI 5 mM glucose + 10% FBS, 46.1 µM	45.4	75	87.9
RPMI 5 mM glucose + 10% dialyzed FBS, 0.000781 µM	79.3	78.2	77.4
RPMI 5 mM glucose + 10% dialyzed FBS, 0.00234 µM	62.7	71.1	83.8
RPMI 5 mM glucose + 10% dialyzed FBS, 0.00702 µM	74	83.2	81.7
RPMI 5 mM glucose + 10% dialyzed FBS, 0.0211 µM	74.2	81.4	81.2
RPMI 5 mM glucose + 10% dialyzed FBS, 0.0632 µM	69.9	87.5	87.1
RPMI 5 mM glucose + 10% dialyzed FBS, 0.19 µM	61	73.4	76.6
RPMI 5 mM glucose + 10% dialyzed FBS, 0.569 µM	66.4	84.3	87.3
RPMI 5 mM glucose + 10% dialyzed FBS, 1.71 µM	57.3	82.1	83.5
RPMI 5 mM glucose + 10% dialyzed FBS, 5.12 µM	58.6	85.3	81.9
RPMI 5 mM glucose + 10% dialyzed FBS, 15.4 µM	20.5	48.6	38.1
RPMI 5 mM glucose + 10% dialyzed FBS, 46.1 µM	27	86.3	90.4

AUC of viability dose-response curve
Conditions	HPLM + 10% dialyzed FBS	RPMI 5 mM glucose + 10% FBS	RPMI 5 mM glucose + 10% dialyzed FBS
[4]	377	387	375
[5]	400	386	377

CCCCCNC(=O)N1CCC(CN(Cc2ccc(Cl)cc2)Cc2ccc([N+](=O)[O-])s2)C1 (stereo not given)
cell viability [%]
Conditions	[1]	[2]	[3]
HPLM + 10% dialyzed FBS, 0.000781 µM	–	–	113
HPLM + 10% dialyzed FBS, 0.00234 µM	–	–	127
HPLM + 10% dialyzed FBS, 0.00702 µM	–	–	119
HPLM + 10% dialyzed FBS, 0.0211 µM	–	–	121
HPLM + 10% dialyzed FBS, 0.0632 µM	–	–	111
HPLM + 10% dialyzed FBS, 0.19 µM	–	–	114
HPLM + 10% dialyzed FBS, 0.569 µM	–	–	111
HPLM + 10% dialyzed FBS, 1.71 µM	–	–	110
HPLM + 10% dialyzed FBS, 5.12 µM	–	–	103
HPLM + 10% dialyzed FBS, 15.4 µM	–	–	96.9
HPLM + 10% dialyzed FBS, 46.1 µM	–	–	85.6
RPMI 5 mM glucose + 10% FBS, 0.000781 µM	113	123	108
RPMI 5 mM glucose + 10% FBS, 0.00234 µM	118	111	116
RPMI 5 mM glucose + 10% FBS, 0.00702 µM	129	104	113
RPMI 5 mM glucose + 10% FBS, 0.0211 µM	116	102	107
RPMI 5 mM glucose + 10% FBS, 0.0632 µM	134	107	114
RPMI 5 mM glucose + 10% FBS, 0.19 µM	120	120	100
RPMI 5 mM glucose + 10% FBS, 0.569 µM	122	108	107
RPMI 5 mM glucose + 10% FBS, 1.71 µM	126	112	97
RPMI 5 mM glucose + 10% FBS, 5.12 µM	121	110	103
RPMI 5 mM glucose + 10% FBS, 15.4 µM	79.5	94.5	90.4
RPMI 5 mM glucose + 10% FBS, 46.1 µM	56.1	94.8	74.2
RPMI 5 mM glucose + 10% dialyzed FBS, 0.000781 µM	113	–	123
RPMI 5 mM glucose + 10% dialyzed FBS, 0.00234 µM	134	–	104
RPMI 5 mM glucose + 10% dialyzed FBS, 0.00702 µM	108	–	104
RPMI 5 mM glucose + 10% dialyzed FBS, 0.0211 µM	107	–	117
RPMI 5 mM glucose + 10% dialyzed FBS, 0.0632 µM	114	–	111
RPMI 5 mM glucose + 10% dialyzed FBS, 0.19 µM	128	–	113
RPMI 5 mM glucose + 10% dialyzed FBS, 0.569 µM	121	–	109
RPMI 5 mM glucose + 10% dialyzed FBS, 1.71 µM	127	–	95.2
RPMI 5 mM glucose + 10% dialyzed FBS, 5.12 µM	132	–	101
RPMI 5 mM glucose + 10% dialyzed FBS, 15.4 µM	102	–	94.3
RPMI 5 mM glucose + 10% dialyzed FBS, 46.1 µM	48.2	–	78.9

AUC of viability dose-response curve
Conditions	HPLM + 10% dialyzed FBS	RPMI 5 mM glucose + 10% FBS	RPMI 5 mM glucose + 10% dialyzed FBS
[5]	443	446	445
[6]	461	447	456

O=C(Nc1cc(C(F)(F)F)cc(C(F)(F)F)c1)c1cc(Cl)ccc1O
AUC of viability dose-response curve
Conditions	[4]	[5]	[6]
HPLM + 10% dialyzed FBS	361	368	373
RPMI 5 mM glucose + 10% FBS	368	361	357
RPMI 5 mM glucose + 10% dialyzed FBS	363	361	370

C[N]1N=C(C)C2=C1OC(=C(/C#N)C2C3=CC=C(C=C3)C(F)(F)F)/N (stereo not given)
AUC of viability dose-response curve
Conditions	HPLM + 10% dialyzed FBS	RPMI 5 mM glucose + 10% FBS	RPMI 5 mM glucose + 10% dialyzed FBS
[5]	457	467	454
[6]	467	438	439

CC(C)CN(C[C@@H](O)[C@H](Cc1ccccc1)NC(=O)O[C@H]1CCOC1)[S+](=O)([O-])c1ccc(N)cc1
AUC of viability dose-response curve
Conditions	[4]	[5]	[6]
HPLM + 10% dialyzed FBS	440	396	410
RPMI 5 mM glucose + 10% FBS	453	382	369
RPMI 5 mM glucose + 10% dialyzed FBS	443	362	365

C/C=C/C(=O)N(CC)c1ccccc1C
AUC of viability dose-response curve
Conditions	[4]	[5]	[6]
HPLM + 10% dialyzed FBS	393	458	434
RPMI 5 mM glucose + 10% FBS	431	470	465
RPMI 5 mM glucose + 10% dialyzed FBS	399	432	428
